Publication PMC12176268, “Structural Features and Photophysical and Antiproliferative Properties of Me2N‑pbt-Cycloplatinated Complexes with Picolinate Ligands” (Inorganic Chemistry, 2025)
Read-outs that look alike come from different tables or passages of the source.

Legend:
[1] = Singlet oxygen generation, NIR emission at 1274 nm versus phenalenone; type: physicochemical; settings: aerated acetonitrile 5 × 10^–5 M, 298 K, excitation 365 nm, reference phenalenone
Experimental: In aerated DMSO solutions, complexes 1–3 display a fluorescence band only at ca 510 nm, attributed to ^1LL′CT/^1ILCT, due to easy quenching of the phosphorescence by oxygen. However, upon prolonged photoexcitation at 365 nm, a continuous enhancement of the phosphorescence band is observed. Simply irradiating with a hand UV–vis lamp, the initial blue-green emission gradually shifts to the orange enhanced emission. The phosphorescence increases its maximum intensity in ca 15 1, 8 2, or 12 min 3 (Figures and S23). […] This relatively rare behavior has been previously observed by us , and other groups, and is explained by the occurrence of a local sensitization caused by energy transfer from the low-energy triplet to ^3O2-producing singlet ^1O2, which is able to selectively react with the solvent creating a free oxygen microenvironment that switches-on a phosphorescence band due to ^3ILCT at 580 nm. The strong sensitivity of the phosphorescence emission in these complexes encourages us to determine their efficiency as ^1O2 sensitizers. The singlet oxygen generation of complexes 1–3 was examined in acetonitrile solution (5 × 10^–5 M) using a near-infrared detector upon excitation at 365 nm, detecting the characteristic emission profile of ^1O2 at λem ∼ 1274 nm (Figure ).

A549 = test: MTT cell viability assay on A549 cells, dark and 450 nm irradiation; type: cell-based, human; settings: for EC50: MTT
Excerpt: (§1) (C∧N) cyclometalated Pt(II) complexes have been previously reported to have strong antiproliferative activities when associated with phenanthroline-based, diphosphine, acyclic diamino carbenes, or picolinate ligands. In particular, (Me2N-pbt)-cyclometalated platinum complexes have been previously reported by some of us to have antiproliferative properties in the micromolar range on a panel of cancer cell lines, prompting us to investigate the anticancer properties of complexes 1–4 in dark conditions and, considering their high quantum yield (ϕΔ) of ^1O2 generation, under irradiation conditions. Due to the poor solubility of the complexes in an aqueous environment, complexes 1–4 were first dissolved in DMSO and diluted in the culture media to reach a final concentration of 1% DMSO when incubated with the cells. All complexes were screened against the so-called “triple-negative” breast cancer cell line MDA-MB-231, lung adenocarcinoma cell line A549, and the noncancerous breast cell line MCF-10A for 72 h in dark conditions and under 5 min irradiation at 450 nm (see Experimental Section for details). The irradiation time was kept short to prevent light-induced toxicity of the energetic wavelength observed at longer irradiation times (data not shown). The measurement of the effective concentration at 50% (EC50) was carried out using the classical MTT assay, and the data are provided in Table .
(§2) In dark conditions, we could notice a strong influence of substituents on the picolinate ligands. […] This can be correlated with its poor stability in the culture medium mentioned above, which might reduce its cellular uptake. […] However, in dark conditions, no particular selectivity for cancer cells could be observed with similar activity measured against the noncancerous cell line MCF-10A. For the “light” experiments, the cells were preincubated with the complexes for 4 h in the dark, irradiated at 450 nm for 5 min, and then put back in the dark until 72 h. The photoactivity index (PI) values, defined as the ratio between the EC50 in dark conditions and the EC50 after irradiation for each cell line, are shown in Figure .
(§3) The human lung adenocarcinoma cell line A549 and human breast cancer cell line MDA-MB-231 were cultivated in DMEM (Dulbecco’s modified Eagle’s medium) containing GlutaMax I supplemented with 10% FBS at 37 °C in a humidified atmosphere and 5% CO2. The noncancerous cell line MCF-10A was maintained in DMEM:F12 (1:1) cell culture media, 5% heat-inactivated horse serum, supplemented with HEPES (20 mM), L-glutamine (2 mM), epidermal growth factor (20 ng/mL), hydrocortisone (500 ng/mL), cholera toxin (100 ng/mL), and insulin (10 μg/mL). Cell viability was evaluated by using a colorimetric method based on the tetrazolium salt MTT [3-(4,5-dimethylthiazol-2-yl)-2,5-diphenyltetrazolium bromide], which is reduced by viable cells to yield purple formazan crystals. Cells were seeded in 96-well plates at a density of 40000 cells/mL (100 μL per well). Stock solutions were prepared in DMSO for complexes 1–4 and in water for cisplatin. […] For dark experiments, after overnight attachment, a dilution series of the compounds was added to the medium, and the cells were incubated for a further 72 h. For the irradiated experiments, after overnight attachment, a dilution series of the compounds was added to the medium, and the cells were preincubated for 4 h. The cells were then irradiated at 450 nm for 5 min with a Kessil Lamp (power: 3 mW/cm^2, 1.13 × 10^–8 Einstein/s at 20 cm distance between the light source and 96-well plate) and the incubation was continued until 72 h. After 72 h, the medium was removed and the cells were incubated with MTT solution in PBS (10 μL of 5 mg/mL) for 2–3 h. The formed purple formazan crystals were dissolved in 100 μL of DMSO by thorough shaking, and the absorbance at 580 nm was read using a microplate reader (FLUOstar OPTIMA, BMG Labtech). Each test was performed with at least 3 replicates and repeated at least 3 times. […]

MCF-10A = test: MTT cell viability assay on noncancerous MCF-10A cells, dark and 450 nm irradiation; type: cell-based, human; settings: for EC50: MTT
Excerpt: as §1, §2, §3

[2] = Stability in serum-free DMEM containing 5% DMSO by UV–vis; type: physicochemical; settings: DMEM with 5% DMSO, 25 μM, 37 °C
Excerpt: The stability of complexes 1–4 was then investigated in more biologically relevant media by UV–visible spectroscopy. First, the stability of the complexes was studied in phosphate-buffered saline (PBS) containing 5% DMSO (Figure S30). […] Only a decrease in the intensity of all bands was observed, which could be attributed to partial aggregation and/or precipitation. […] The stability of complexes 1–4 was next studied in serum-free DMEM cell culture containing 5% DMSO (Figure S31). […] This final species seemed to have spectral features similar to those observed for complex 4 (Figure S31A). […] The similarity of the spectral features of the transformed species in all cases seemed to point to the formation of a common species upon incubation in DMEM, which we tentatively attribute to the decoordination of the picolinate ligands with a substituent-dependent kinetics; the COOH group favored the release of the picolinate ligand, while both NH2 and OH substituents seemed to slow down this process.
The UV–vis spectra of complexes 1–4 were recorded in PBS:DMSO (95/5) and serum-free DMEM:DMSO (95/5) at a concentration of 25 μM on a Cary 50 spectrophotometer (Varian).

[Pt(Me2N-pbt)(3-OH-pic-κN,O)] [Complex 3]
quantum yield (ϕΔ) of 1O2 [1]: 16.2%
photoactivity index (PI), EC50 dark / EC50 after irradiation, A549 (A549; 5 min irradiation at 450 nm): 5.6
EC50 (A549; 4 h preincubation, 5 min irradiation at 450 nm, then dark until 72 h, read-out: EC50 A549 light): 1100 ± 80 nM
EC50 (A549; 72 h incubation at 37 °C, dark, read-out: EC50 A549 dark): 6100 ± 200 nM
reduction of the antiproliferative activity relative to 1, A549 (A549; dark conditions): ~5 times
photoactivity index (PI), EC50 dark / EC50 after irradiation, MCF-10A (MCF-10A; 5 min irradiation at 450 nm): < 2
EC50 (MCF-10A; 4 h preincubation, 5 min irradiation at 450 nm, then dark until 72 h, read-out: EC50 MCF-10A light): 520 ± 50 nM
EC50 (MCF-10A; 72 h incubation at 37 °C, dark, read-out: EC50 MCF-10A dark): 1000 ± 200 nM
stability in serum-free DMEM, UV–vis spectral changes, 24 h ([2]; 24 h): spectral features of both complexes changed
stability in serum-free DMEM, UV–vis spectral changes, first 4 h ([2]; first 4 h, dark or with 5 min irradiation at 450 nm): no spectral changes
